Test results taken from ChEMBL document CHEMBL1158513, “Identification and SAR of novel pyrrolo[1,2-a]pyrazin-1(2H)-one derivatives as inhibitors of poly(ADP-ribose) polymerase-1 (PARP-1)” (Bioorg Med Chem Lett, 2010).

Columns and labels:
[1] = test system: HeLa; test: Antiproliferative activity against BRCA1-deficient human HeLa cells after 7 days by celltiter-blue assay; assay type: functional; details: 168 h
[2] = molecular target: Poly [ADP-ribose] polymerase 1 (Homo sapiens, UniProt P09874); test: Inhibition of PARP1 by topcount microplate scintillation counter
Poly [ADP-ribose] polymerase 1, sequence (P09874 whole entry): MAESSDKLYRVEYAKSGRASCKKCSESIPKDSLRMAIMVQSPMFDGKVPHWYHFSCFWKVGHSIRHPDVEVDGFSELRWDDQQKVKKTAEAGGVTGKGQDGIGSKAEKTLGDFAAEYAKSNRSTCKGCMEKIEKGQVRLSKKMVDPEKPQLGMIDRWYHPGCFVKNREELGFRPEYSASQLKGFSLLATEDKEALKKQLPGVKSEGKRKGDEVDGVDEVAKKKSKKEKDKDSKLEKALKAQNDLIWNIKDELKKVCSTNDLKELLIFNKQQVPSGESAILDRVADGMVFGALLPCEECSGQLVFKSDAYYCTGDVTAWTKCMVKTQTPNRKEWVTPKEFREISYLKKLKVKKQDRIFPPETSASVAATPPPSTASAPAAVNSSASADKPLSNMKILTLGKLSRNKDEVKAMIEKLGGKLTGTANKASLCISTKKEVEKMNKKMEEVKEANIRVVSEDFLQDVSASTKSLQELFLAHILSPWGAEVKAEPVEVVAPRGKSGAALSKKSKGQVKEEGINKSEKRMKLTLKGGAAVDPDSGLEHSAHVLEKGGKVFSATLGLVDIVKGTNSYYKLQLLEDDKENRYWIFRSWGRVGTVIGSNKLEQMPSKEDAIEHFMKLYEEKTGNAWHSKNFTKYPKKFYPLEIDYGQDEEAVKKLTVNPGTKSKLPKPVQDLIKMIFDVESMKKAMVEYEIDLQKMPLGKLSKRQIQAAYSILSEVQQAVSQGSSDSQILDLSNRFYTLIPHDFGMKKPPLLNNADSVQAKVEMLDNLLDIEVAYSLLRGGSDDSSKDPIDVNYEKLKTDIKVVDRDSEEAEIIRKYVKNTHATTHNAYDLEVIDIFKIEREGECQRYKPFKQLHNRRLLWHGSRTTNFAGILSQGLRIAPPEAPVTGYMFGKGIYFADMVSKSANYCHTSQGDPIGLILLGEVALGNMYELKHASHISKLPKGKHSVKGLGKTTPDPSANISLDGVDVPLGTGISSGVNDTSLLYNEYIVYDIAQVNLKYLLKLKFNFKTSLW

[3] = test system: HeLa; test: Antiproliferative activity against BRCA1-proficient human HeLa cells after 7 days by celltiter-blue assay; assay type: functional; details: 168 h
[4] = test system: HeLa; test: Selectivity ratio of CC50 for BRCA1-proficient human HeLa to CC50 for BRCA1-deficient human HeLa cells; assay type: functional
[5] = Lipophilicity, log D of the compound; assay type: physicochemical; details: octanol/water

Row | SMILES | CC50 [1] [nM] | IC50 [2] [nM] | CC50 [3] [nM] | Selectivity ratio [4] | logD [5]
1 | O=C(c1cc(Cc2c[nH]c(=O)c3cc(Cl)c(Cl)n23)ccc1F)N1CCN(c2ncccn2)CC1 | 130 | 3.1 | 2800 | – | –
2 | CCCCN1CCN(C(=O)c2cc(Cc3c[nH]c(=O)c4cc(Cl)c(Cl)n34)ccc2F)CC1 | 1600 | 13 | > 10000 | – | –
3 | CN(C)C(=O)N1CCN(C(=O)c2cc(Cc3c[nH]c(=O)c4cc(Cl)c(Cl)n34)ccc2F)CC1 | 670 | 7.2 | > 10000 | – | –
4 | O=C(c1cc(Cc2c[nH]c(=O)c3cc(Cl)c(Cl)n23)ccc1F)N1CCC(N2CCC2)CC1 | 180 | 1 | > 10000 | – | –
5 | O=C(c1cc(Cc2c[nH]c(=O)c3cc(Cl)c(Cl)n23)ccc1F)N1CCCCC1 | – | 200 | – | – | –
6 | O=C(c1cc(Cc2c[nH]c(=O)c3cc(Cl)c(Cl)n23)ccc1F)N1CCC2(CCN2)CC1 | 2300 | 8.2 | > 5000 | – | –
7 | CN(C)C1CCN(C(=O)c2cc(Cc3c[nH]c(=O)c4cc(Cl)c(Cl)n34)ccc2F)CC1 | 1600 | 2.6 | > 10000 | – | –
8 | O=C(c1cc(Cc2c[nH]c(=O)c3cc(Cl)c(Cl)n23)ccc1F)N1CCN(C2CCCCC2)CC1 | 970 | 14 | > 5000 | – | –
9 | CCN(CC)C1CCN(C(=O)c2cc(Cc3c[nH]c(=O)c4cc(Cl)c(Cl)n34)ccc2F)CC1 | 1100 | 22 | > 5000 | – | –
10 | O=C(c1cc(Cc2c[nH]c(=O)c3cc(Cl)c(Cl)n23)ccc1F)N1CCC2(CC1)NCNC2=O | > 2500 | 9 | > 5000 | – | –
11 | O=C(c1cc(Cc2c[nH]c(=O)c3cc(Cl)c(Cl)n23)ccc1F)N1CCN(c2cc3ccccc3cn2)CC1 | 320 | 1.8 | 1200 | – | –
12 | O=C(c1cc(Cc2c[nH]c(=O)c3cc(Cl)c(Cl)n23)ccc1F)N1CCNCC1 | 180 | 2.3 | > 20000 | – | –
13 | CN1CCN(C(=O)c2cc(Cc3c[nH]c(=O)c4cc(Cl)c(Cl)n34)ccc2F)CC1 | – | 41 | – | – | –
14 | N#Cc1cccnc1N1CCN(C(=O)c2cc(Cc3c[nH]c(=O)c4cc(Cl)c(Cl)n34)ccc2F)CC1 | 62 | 0.7 | 1600 | 25 | –
15 | COc1cccnc1N1CCN(C(=O)c2cc(Cc3c[nH]c(=O)c4cc(Cl)c(Cl)n34)ccc2F)CC1 | 2700 | 15 | > 5000 | – | –
16 | O=C(c1cc(Cc2c[nH]c(=O)c3cc(Cl)c(Cl)n23)ccc1F)N1CCN(c2ccccc2F)CC1 | > 10000 | 24 | > 10000 | – | –
17 | O=C(c1cc(Cc2c[nH]c(=O)c3cc(Cl)c(Cl)n23)ccc1F)N1CCN(CCO)CC1 | > 5000 | 13 | > 10000 | – | –
18 | CC(C)C(=O)N1CCN(C(=O)c2cc(Cc3c[nH]c(=O)c4cc(Cl)c(Cl)n34)ccc2F)CC1 | 150 | 2.1 | > 5000 | 30 | –
19 | O=C(c1cc(Cc2c[nH]c(=O)c3cc(Cl)c(Cl)n23)ccc1F)N1CCN(c2ncnc3ccccc23)CC1 | 60 | 1.4 | 920 | – | –
20 | CN1CCCN(C(=O)c2cc(Cc3c[nH]c(=O)c4cc(Cl)c(Cl)n34)ccc2F)CC1 | 1100 | 5 | > 20000 | – | –
21 | CC(=O)N1CCCN(C(=O)c2cc(Cc3c[nH]c(=O)c4cc(Cl)c(Cl)n34)ccc2F)CC1 | 5700 | 19 | > 20000 | – | –
22 | O=C(c1cc(Cc2c[nH]c(=O)c3cc(Cl)c(Cl)n23)ccc1F)N1CCCNCC1 | 170 | 2.6 | > 20000 | – | 0.91
23 | CN(C)S(=O)(=O)N1CCN(C(=O)c2cc(Cc3c[nH]c(=O)c4cc(Cl)c(Cl)n34)ccc2F)CC1 | 910 | 2.4 | > 10000 | – | –
24 | CN(C)CC(=O)N1CCN(C(=O)c2cc(Cc3c[nH]c(=O)c4cc(Cl)c(Cl)n34)ccc2F)CC1 | 3500 | 2.5 | > 10000 | – | –

Row | SMILES | CC50 [1] [nM] | IC50 [2] [nM] | CC50 [3] [nM] | Selectivity ratio [4] | logD [5]
25 | CN(C)C(C)(C)C(=O)N1CCN(C(=O)c2cc(Cc3c[nH]c(=O)c4cc(Cl)c(Cl)n34)ccc2F)CC1 | 200 | 5.1 | > 5000 | – | –
26 | CCS(=O)(=O)N1CCN(C(=O)c2cc(Cc3c[nH]c(=O)c4cc(Cl)c(Cl)n34)ccc2F)CC1 | 3000 | 9 | > 5000 | – | –
27 | CC(C)(C)C(=O)N1CCN(C(=O)c2cc(Cc3c[nH]c(=O)c4cc(Cl)c(Cl)n34)ccc2F)CC1 | 340 | 1 | > 5000 | – | –
28 | O=C(c1cc(Cc2c[nH]c(=O)c3cc(Cl)c(Cl)n23)ccc1F)N1CCN(C(=O)C2CCCC2)CC1 | 270 | 3.7 | > 5000 | – | –
29 | O=C(c1ccccn1)N1CCN(C(=O)c2cc(Cc3c[nH]c(=O)c4cc(Cl)c(Cl)n34)ccc2F)CC1 | 150 | 2.4 | > 5000 | 30 | –
30 | O=C(c1cc(Cc2c[nH]c(=O)c3c(Cl)cc(Cl)n23)ccc1F)N1CCCNCC1 | 18000 | 4 | > 20000 | – | –
31 | O=C(c1cc(Cc2c[nH]c(=O)c3cc(Cl)c(Cl)n23)ccc1F)N1CCOCC1 | – | 59 | – | – | –
32 | O=C(c1cc(Cc2c[nH]c(=O)c3c(Cl)c(Cl)cn23)ccc1F)N1CCCNCC1 | 220 | 1.6 | > 20000 | – | –
33 | CC(C)CN1CCN(C(=O)c2cc(Cc3c[nH]c(=O)c4cc(Cl)c(Cl)n34)ccc2F)CC1 | 250 | 14 | > 10000 | – | –
34 | CN(C)CCN1CCN(C(=O)c2cc(Cc3c[nH]c(=O)c4cc(Cl)c(Cl)n34)ccc2F)CC1 | > 10000 | 18 | > 10000 | – | –
35 | O=C(c1cc(Cc2c[nH]c(=O)c3cc(Cl)c(Cl)n23)ccc1F)N1CCC2(CCCCN2)CC1 | 220 | 6.2 | > 5000 | – | –
36 | CC(=O)N1CCN(C(=O)c2cc(Cc3c[nH]c(=O)c4cc(Cl)c(Cl)n34)ccc2F)CC1 | 700 | 6.3 | > 10000 | – | –
37 | N#Cc1ccc(N2CCN(C(=O)c3cc(Cc4c[nH]c(=O)c5cc(Cl)c(Cl)n45)ccc3F)CC2)nc1 | 200 | 14 | 4200 | – | –
38 | O=C(c1cc(Cc2c[nH]c(=O)c3cc(Cl)c(Cl)n23)ccc1F)N1CCN(c2ncc3ccccc3n2)CC1 | 190 | 1 | 770 | – | –
39 | CNC1CCN(C(=O)c2cc(Cc3c[nH]c(=O)c4cc(Cl)c(Cl)n34)ccc2F)CC1 | 400 | 2.3 | > 5000 | – | –
40 | O=C(c1cc(Cc2c[nH]c(=O)c3cc(Cl)c(Cl)n23)ccc1F)N1CCN(c2cccnc2)CC1 | > 5000 | 12 | > 5000 | 20 | –
41 | O=C(c1ncc[nH]1)N1CCN(C(=O)c2cc(Cc3c[nH]c(=O)c4cc(Cl)c(Cl)n34)ccc2F)CC1 | 500 | 3.1 | > 5000 | – | –
42 | CN(C)C(=O)C(=O)N1CCN(C(=O)c2cc(Cc3c[nH]c(=O)c4cc(Cl)c(Cl)n34)ccc2F)CC1 | 1800 | 2 | > 10000 | – | –
43 | O=C(c1cc(Cc2c[nH]c(=O)c3cc(Cl)c(Cl)n23)ccc1F)N1CCN(c2ccccn2)CC1 | 430 | 2.8 | > 10000 | – | –
44 | O=C(c1cc(Cc2c[nH]c(=O)c3cc(Cl)cn23)ccc1F)N1CCCNCC1 | 2500 | 1 | > 20000 | – | 0.58
45 | NC1CCN(C(=O)c2cc(Cc3c[nH]c(=O)c4cc(Cl)c(Cl)n34)ccc2F)CC1 | 3800 | 7.1 | > 10000 | – | –
46 | CCC(=O)N1CCN(C(=O)c2cc(Cc3c[nH]c(=O)c4cc(Cl)c(Cl)n34)ccc2F)CC1 | 1200 | 3.2 | > 5000 | – | –
47 | O=C(c1cc(Cc2c[nH]c(=O)c3cc(Cl)c(Cl)n23)ccc1F)N1CCC2(CCCN2)CC1 | 48 | – | > 10000 | 50 | –
48 | Cc1cc2c(=O)[nH]cc(Cc3ccc(F)c(C(=O)N4CCCNCC4)c3)n2c1 | 3400 | 1.6 | > 20000 | – | –
